# From ChEMBL document CHEMBL1157299, “Alkaloids from Eschscholzia californica and their capacity to inhibit binding of [3H]8-Hydroxy-2-(di-N-propylamino)tetralin to 5-HT1A receptors in Vitro” (J Nat Prod, 2006)
# The source made the active and inactive calls. No cut-off for these calls is given here. Where a SMILES comes first, the peptide text is derived from it. [ ]: non-standard residue; d: D form.
# Tests used:
# [1] = molecular target: T1, 5-hydroxytryptamine receptor 1A (Homo sapiens, UniProt P08908); assay: (§1) Displacement of [3H]8-OH-DPAT from human recombinant 5HT1A receptor expressed in CHO cells; type: cell-based
# T1 sequence (P08908 whole entry): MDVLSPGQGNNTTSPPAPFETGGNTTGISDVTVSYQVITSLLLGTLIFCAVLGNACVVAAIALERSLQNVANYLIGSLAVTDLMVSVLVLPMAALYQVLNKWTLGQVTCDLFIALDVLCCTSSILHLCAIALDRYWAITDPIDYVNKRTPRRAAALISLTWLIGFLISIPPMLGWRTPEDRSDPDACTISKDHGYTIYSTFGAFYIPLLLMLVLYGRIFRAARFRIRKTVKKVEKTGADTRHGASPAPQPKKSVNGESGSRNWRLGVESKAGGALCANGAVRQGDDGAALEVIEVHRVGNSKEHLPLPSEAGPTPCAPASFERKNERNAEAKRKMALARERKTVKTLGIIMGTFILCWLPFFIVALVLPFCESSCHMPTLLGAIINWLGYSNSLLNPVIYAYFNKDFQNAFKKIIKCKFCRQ
# [2] = molecular target: T2, Substance-K receptor (Homo sapiens, UniProt P21452); assay: Displacement of [3H]SR48968 from human recombinant NK2 receptor expressed in CHO cells; type: cell-based
# T2 sequence (P21452 whole entry): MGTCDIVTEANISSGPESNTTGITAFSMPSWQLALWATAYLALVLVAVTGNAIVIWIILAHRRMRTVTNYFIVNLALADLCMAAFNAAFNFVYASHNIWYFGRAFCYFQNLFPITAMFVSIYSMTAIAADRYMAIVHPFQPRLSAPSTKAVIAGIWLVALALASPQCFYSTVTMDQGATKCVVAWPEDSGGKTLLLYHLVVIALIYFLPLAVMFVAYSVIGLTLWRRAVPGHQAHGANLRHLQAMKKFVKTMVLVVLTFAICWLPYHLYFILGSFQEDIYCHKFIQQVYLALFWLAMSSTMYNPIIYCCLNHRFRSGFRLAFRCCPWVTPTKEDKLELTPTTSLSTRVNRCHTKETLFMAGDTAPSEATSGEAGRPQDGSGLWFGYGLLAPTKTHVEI
# [3] = molecular target: Substance-P receptor (Homo sapiens, UniProt P25103); assay: Displacement of [3H]SR140333 from human recombinant NK1 receptor expressed in CHO cells; type: cell-based
# Sequence of Substance-P receptor (P25103 whole entry): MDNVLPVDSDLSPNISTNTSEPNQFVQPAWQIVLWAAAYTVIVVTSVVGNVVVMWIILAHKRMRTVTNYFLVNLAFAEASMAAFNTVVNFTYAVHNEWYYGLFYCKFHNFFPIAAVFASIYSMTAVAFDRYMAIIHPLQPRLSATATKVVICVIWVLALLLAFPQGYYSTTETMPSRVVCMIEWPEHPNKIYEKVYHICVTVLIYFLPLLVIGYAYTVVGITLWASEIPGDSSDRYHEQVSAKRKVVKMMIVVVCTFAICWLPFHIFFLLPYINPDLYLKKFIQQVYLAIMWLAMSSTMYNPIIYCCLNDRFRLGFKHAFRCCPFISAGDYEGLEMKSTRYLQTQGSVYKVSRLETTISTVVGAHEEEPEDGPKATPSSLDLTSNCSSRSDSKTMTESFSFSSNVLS
# [4] = molecular target: Cytochrome P450 3A4 (Homo sapiens, UniProt P08684)
# Sequence of Cytochrome P450 3A4 (P08684 whole entry): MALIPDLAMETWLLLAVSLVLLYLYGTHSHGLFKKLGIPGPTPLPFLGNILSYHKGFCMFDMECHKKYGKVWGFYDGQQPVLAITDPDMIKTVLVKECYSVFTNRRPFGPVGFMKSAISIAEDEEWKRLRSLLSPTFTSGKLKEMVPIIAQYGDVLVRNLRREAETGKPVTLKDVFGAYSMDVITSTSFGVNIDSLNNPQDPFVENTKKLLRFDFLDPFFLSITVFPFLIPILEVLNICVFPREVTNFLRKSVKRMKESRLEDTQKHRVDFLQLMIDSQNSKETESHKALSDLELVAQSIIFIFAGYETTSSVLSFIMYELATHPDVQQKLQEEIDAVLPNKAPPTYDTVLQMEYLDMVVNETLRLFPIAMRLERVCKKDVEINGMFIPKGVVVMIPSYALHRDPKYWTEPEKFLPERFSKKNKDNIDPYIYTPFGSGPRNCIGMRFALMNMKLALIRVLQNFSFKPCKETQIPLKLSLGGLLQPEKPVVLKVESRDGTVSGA
# [5] = molecular target: T3, 5-hydroxytryptamine receptor 1A (Homo sapiens) (UniProt P08908); assay: as §1; type: cell-based
# T3 sequence (whole entry): T1 sequence (P08908 whole entry)
SMILES,EC50 [1] [µM],IC50 [4] [µM],Activity [5],further results
COc1cc2c(cc1O)C[C@H]1c3c(cc(OC)c(OC)c3-2)CCN1C,0.16,,,Ki [1]: 0.085 µM
CC(C)[C@H](NC(=O)[C@@H](Cc1c[nH]c2ccccc12)NC(=O)[C@H](Cc1ccc(O)cc1)NC(=O)[C@@H](N)CC(=O)O)C(=O)N[C@H](Cc1c[nH]c2ccccc12)C(=O)N[C@H](Cc1c[nH]c2ccccc12)C(=O)N[C@@H](CCCCN)C(N)=O (H-DY[dW]V[dW][dW]K-NH2),,,,EC50 [2]: 0.0781 µM
Ic1ccccc1CN[C@@H]1C2CCN(CC2)[C@@H]1C(c1ccccc1)c1ccccc1 (relative stereo),,,,EC50 [3]: 0.0244 µM
C[N+]1(C)[C@H]2Cc3cc4c(cc3[C@@H]1Cc1cc3c(cc12)COC3)OCO4 [CALIFORNIDINE],> 100,> 80,inactive,
COc1cc2c(cc1O)[C@@H]1Cc3cc4c(cc3[C@H](C2)N1C)OCO4 [CARYACHINE],9,,5 µM,
CN1[C@H]2Cc3cc4c(cc3[C@@H]1Cc1cc3c(cc12)OCO3)OCO4 [ESCHOLTZINE],11,,,Ki [1]: 6 µM
COc1cc(-c2oc3cc(O)cc(O)c3c(=O)c2O[C@@H]2O[C@H](CO[C@@H]3O[C@@H](C)[C@H](O)[C@@H](O)[C@H]3O)[C@@H](O)[C@H](O)[C@H]2O)ccc1O [NARCISSIN],,> 80,,
CN1CCc2cc3c(cc2C(=O)Cc2ccc4c(c2C1)OCO4)OCO3 [PROTOPINE],> 100,> 80,,
O=c1c(O)c(-c2ccc(O)c(O)c2)oc2cc(O)cc(O)c12 [QUERCETIN],> 100,,inactive,
